Test results published in paper PMC9709406 (Frontiers in Pharmacology, 2022).
Where “and” joins values, the source holds several entries; their conditions need not be identical. Equal entries are not always repeated. Where two headings read alike, the source gives them in different places.

Assays:
H1650 cells = assay: MTT assay for cell proliferation and cytotoxicity, H1650; assay type: cell-based; details: Homo sapiens, NCI-H1650, 48 h, H1650, n = 5
Source text: (§1) The human cancer cells (H1650, H1975, KYSE70, KYSE410 and KYSE450) were purchased from the Type Culture Collection of the Chinese Academy of Sciences (Shanghai, China). The human immortalized normal esophageal epithelial cell line SHEE was donated by Dr. Enmin Li from the Laboratory of Tumor Pathology (Shantou University Medical College, Shantou, Guangdong, China). Drug-resistant cells (H1650TR, H1975OR, KYSE70TR, KYSE410TR and KYSE450TR) were induced by China-US (Henan) Hormel Cancer Institute. The cellswere cultured in RPMI-1640 complete growth medium containing 100 U/mL penicillin-streptomycin and 10% FBS. Based on the above medium formula, 100 nm/L paclitaxel was added in taxol-resistant cells, 100 nm/L gefitinib was added in gefitinib-resistant cells. The cells were incubated at 37 °C in an atmosphere containing 5% of CO2. The compounds were dissolved in DMSO to make a 50 mM stock solution and were diluted to the concentration of working solutions with complete growth medium before administration.
(§2) Cells were seeded in 96-well plates with 2,200–2,500 cells/well in100 μL. One day after seeding, test compounds with the concentration between 0 and 50 μM were added with 0.1% DMSO as control. Five multiple wells for each concentration. After 48 h, MTT was added and incubated in the plate for 1–4 h in the incubator. The absorbance at 490 nm was measured using a microplate reader (Thermo).

KYSE70 cells = assay: MTT assay, KYSE70; assay type: cell-based, human; details: for IC50: Homo sapiens, KYSE-70, MTT, 48 h, KYSE70, n = 5
Source text: as §1, §2

H1975 cells = assay: MTT assay for cell proliferation and cytotoxicity, H1975; assay type: cell-based, human; details: Homo sapiens, NCI-H1975, 48 h, MTT, 48 h, H1975, n = 5; read-out: IC50 48 h H1975
Source text: as §1
as §2, with “After 48 h, MTT was added and incubated in the plate for 1–4 h in the incubator.” left out

KYSE450 cells = assay: MTT assay, KYSE450; assay type: cell-based, human; details: for IC50: Homo sapiens, KYSE-450, MTT, 48 h, KYSE450, n = 5, read-out: IC50 48 h KYSE450; for absorbance 490 nm, single well / mean absorbance 490 nm (row G) / mean absorbance 490 nm minus background (row H): KYSE450
Source text: as §1, §2

EGFR = target: T1, EGFR (Homo sapiens, UniProt P00533); assay: EGFR kinase assay (ELISA); assay type: biochemical; details: 25°C
T1 construct: purchased Active MOTIF
Procedure: Kinase inhibitory activities of the compounds were evaluated using the Protein Tyrosine Kinase Assay Kit (SignalChem (British Columbia, Canada)). The kinase enzyme of EGFR was purchased from Active MOTIF. The ELISA experiments were carried out according the instructions of the kit. Active kinases were incubated with indicated compounds in 1 × reaction buffer containing 20 μM substrate at 25°C for 1 h and 2 h, respectively. The absorbance was read with a multimode plate reader (PerkinElmer, United States) at 450 nm.

KYSE410 cells = assay: MTT assay, KYSE410; assay type: cell-based, human; details: for IC50: Homo sapiens, 48 h
Source text: as §1, §2

SHEE cells = assay: MTT assay, normal esophageal epithelial cell line SHEE; assay type: cell-based; details: Homo sapiens, 48 h, n = 5
Source text: as §1, §2

KYSE70TR cells = assay: MTT assay, taxol-resistant KYSE70TR; assay type: cell-based, human; details: Homo sapiens, KYSE 70 TR, MTT, resistance-inducing drug (taxol)
Source text: as §1
as §2, with “After 48 h, MTT was added and incubated in the plate for 1–4 h in the incubator.” left out

KYSE410TR cells = assay: MTT assay, taxol-resistant KYSE410TR; assay type: cell-based, human; details: Homo sapiens, KYSE 410 TR, MTT, resistance-inducing drug (taxol)
Source text: as §1
as §2, with “After 48 h, MTT was added and incubated in the plate for 1–4 h in the incubator.” left out

KYSE450TR cells = assay: MTT assay, taxol-resistant KYSE450TR; assay type: cell-based, human; details: Homo sapiens, KYSE 450 TR, MTT, resistance-inducing drug (taxol)
Source text: as §1
as §2, with “After 48 h, MTT was added and incubated in the plate for 1–4 h in the incubator.” left out

[1] = KYSE-410, MTT, KYSE410, n = 5, read-out: IC50 48 h KYSE410
[2] = concentration 12.5 (unit not given)
[3] = concentration 25 (unit not given)
[4] = concentration 50 (unit not given)
[5] = concentration 100 (unit not given)

T1 sequence (P00533 25-1210): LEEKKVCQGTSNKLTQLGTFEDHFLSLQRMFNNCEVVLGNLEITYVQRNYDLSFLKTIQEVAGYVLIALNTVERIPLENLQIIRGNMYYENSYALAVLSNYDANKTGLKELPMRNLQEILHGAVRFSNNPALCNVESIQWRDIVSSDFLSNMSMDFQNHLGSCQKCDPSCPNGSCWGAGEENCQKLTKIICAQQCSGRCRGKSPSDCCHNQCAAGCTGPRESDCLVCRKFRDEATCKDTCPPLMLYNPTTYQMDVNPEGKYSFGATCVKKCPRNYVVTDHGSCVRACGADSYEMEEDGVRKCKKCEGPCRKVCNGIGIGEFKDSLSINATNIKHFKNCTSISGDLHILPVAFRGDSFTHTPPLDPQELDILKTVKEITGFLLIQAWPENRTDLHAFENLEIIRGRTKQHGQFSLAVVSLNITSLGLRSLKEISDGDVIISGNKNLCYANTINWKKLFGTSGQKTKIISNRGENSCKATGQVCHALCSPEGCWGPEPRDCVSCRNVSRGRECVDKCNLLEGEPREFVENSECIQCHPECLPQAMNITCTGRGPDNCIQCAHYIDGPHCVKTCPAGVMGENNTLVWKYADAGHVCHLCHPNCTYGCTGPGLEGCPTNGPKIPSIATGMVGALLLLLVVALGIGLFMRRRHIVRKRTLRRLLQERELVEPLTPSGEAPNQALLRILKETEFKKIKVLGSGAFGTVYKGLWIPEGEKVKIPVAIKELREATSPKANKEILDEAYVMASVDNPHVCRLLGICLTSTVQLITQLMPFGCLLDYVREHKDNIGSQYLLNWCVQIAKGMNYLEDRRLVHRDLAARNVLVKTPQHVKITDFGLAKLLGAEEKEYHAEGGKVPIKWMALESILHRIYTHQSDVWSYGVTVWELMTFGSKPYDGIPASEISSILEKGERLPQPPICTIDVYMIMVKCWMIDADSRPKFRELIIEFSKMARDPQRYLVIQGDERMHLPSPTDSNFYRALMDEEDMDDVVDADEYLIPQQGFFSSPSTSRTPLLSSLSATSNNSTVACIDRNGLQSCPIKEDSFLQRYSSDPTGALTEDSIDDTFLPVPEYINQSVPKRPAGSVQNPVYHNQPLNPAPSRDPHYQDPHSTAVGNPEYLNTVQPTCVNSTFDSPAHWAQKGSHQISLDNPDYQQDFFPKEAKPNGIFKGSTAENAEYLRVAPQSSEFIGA

melting point [°C]	Compound	IC50 (H1650 cells) [µM]	IC50 (KYSE70 cells) [µM]	blank-corrected absorbance 490 nm relative to control (fraction) (KYSE70 cells; KYSE70, concentration 12.5)	inhibition (1 minus fraction of control) (KYSE70 cells; KYSE70, concentration 12.5)	blank-corrected absorbance 490 nm relative to control (fraction) (KYSE70 cells; KYSE70, concentration 25)	inhibition (1 minus fraction of control) (KYSE70 cells; KYSE70, concentration 25)	blank-corrected absorbance 490 nm relative to control (fraction) (KYSE70 cells; KYSE70, concentration 50)	inhibition (1 minus fraction of control) (KYSE70 cells; KYSE70, concentration 50)	blank-corrected absorbance 490 nm relative to control (fraction) (KYSE70 cells; KYSE70, concentration 100)	inhibition (1 minus fraction of control) (KYSE70 cells; KYSE70, concentration 100)	IC50 (H1975 cells) [µM]	IC50 (KYSE450 cells) [µM]	IC50 (KYSE410 cells; [1]) [µM]	blank-corrected absorbance 490 nm relative to control (fraction) (KYSE410 cells; KYSE410, concentration 12.5)	inhibition (1 minus fraction of control) (KYSE410 cells; KYSE410, concentration 12.5)	blank-corrected absorbance 490 nm relative to control (fraction) (KYSE410 cells; KYSE410, concentration 25)	inhibition (1 minus fraction of control) (KYSE410 cells; KYSE410, concentration 25)	blank-corrected absorbance 490 nm relative to control (fraction) (KYSE410 cells; KYSE410, concentration 50)	IC50 (SHEE cells) [µM]	other results
132 to 135	Clc1ccc(-n2cc(-c3cccc(Nc4ncnc5cc6c(cc45)OCCOCCOCCO6)c3)nn2)cc1 [compound 3b]	7.81 ± 0.46	8.85 ± 0.67	0.2939	0.7061	0.2786	0.7214	0.1882	0.8118	0.1691	0.8309	> 50	11.6 ± 1.02	10.7 ± 0.86	0.4136	0.5864	0.4139	0.5861	0.3164	6.03 ± 0.48	IC50 (EGFR; incubation 1 h, read-out: IC50 EGFR 1 h): 3.26 µM; IC50 (EGFR; incubation 2 h, read-out: IC50 EGFR 2 h): 71.7 µM; inhibition (1 minus fraction of control) (KYSE410 cells; KYSE410, concentration 50): 0.6836; blank-corrected absorbance 490 nm relative to control (fraction) (KYSE410 cells; KYSE410, concentration 100): 0.1744; inhibition (1 minus fraction of control) (KYSE410 cells; KYSE410, concentration 100): 0.8256
146 to 149	c1ccc(Cn2cc(-c3cccc(Nc4ncnc5cc6c(cc45)OCCOCCOCCO6)c3)nn2)cc1 [compound 3r]	19.6 ± 1.72	7.32 ± 0.62	0.2722	0.7278	0.1457	0.8543	0.1803	0.8197	0.1267	0.8733	19.2 ± 1.59	28.1 ± 1.18	9.23 ± 0.97	0.3227	0.6773	0.3216	0.6784	0.3502	21 ± 1.11	absorbance 490 nm, single well (KYSE450 cells; [2]): 0.6476 and 0.598 and 0.6398 and 0.6662; mean absorbance 490 nm (row G) (KYSE450 cells; [2]): 0.6379; mean absorbance 490 nm minus background (row H) (KYSE450 cells; [2]): 0.586; absorbance 490 nm, single well (KYSE450 cells; [3]): 0.4195 and 0.4416 and 0.4375 and 0.4182; mean absorbance 490 nm (row G) (KYSE450 cells; [3]): 0.4292; mean absorbance 490 nm minus background (row H) (KYSE450 cells; [3]): 0.3773; absorbance 490 nm, single well (KYSE450 cells; [4]): 0.1593 and 0.152 and 0.1434; mean absorbance 490 nm (row G) (KYSE450 cells; [4]): 0.1516; mean absorbance 490 nm minus background (row H) (KYSE450 cells; [4]): 0.09971; absorbance 490 nm, single well (KYSE450 cells; [5]): 0.127 and 0.1396 and 0.1367; mean absorbance 490 nm (row G) (KYSE450 cells; [5]): 0.1344; mean absorbance 490 nm minus background (row H) (KYSE450 cells; [5]): 0.08257; inhibition (1 minus fraction of control) (KYSE410 cells; KYSE410, concentration 50): 0.6498; blank-corrected absorbance 490 nm relative to control (fraction) (KYSE410 cells; KYSE410, concentration 100): 0.1592; inhibition (1 minus fraction of control) (KYSE410 cells; KYSE410, concentration 100): 0.8408
161 to 164	Brc1ccccc1Cn1cc(-c2cccc(Nc3ncnc4cc5c(cc34)OCCOCCOCCO5)c2)nn1 [compound 3s]	17.1 ± 1.64	9.35 ± 0.89									> 50	23.4 ± 1.13	19.2 ± 1.22						14.2 ± 0.94	
131 to 134	COc1cccc(Cn2cc(-c3cccc(Nc4ncnc5cc6c(cc45)OCCOCCOCCO6)c3)nn2)c1 [compound 3t]	21 ± 1.91	> 50									20 ± 1.52	45.6 ± 2.01	> 50						33.3 ± 1.99	
151 to 154	Brc1cc(Br)cc(Cn2cc(-c3cccc(Nc4ncnc5cc6c(cc45)OCCOCCOCCO6)c3)nn2)c1 [compound 3u]	> 50	> 50									> 50	> 50	> 50						> 50	
110 to 113	Fc1ccc(CCn2cc(-c3cccc(Nc4ncnc5cc6c(cc45)OCCOCCOCCO6)c3)nn2)cc1 [compound 3v]	11.6 ± 0.96	6.93 ± 0.37	0.0977	0.9023	0.03951	0.9605	0.1249	0.8751	0.0961	0.9039	11.1 ± 0.95	11 ± 0.97	21.6 ± 1.35	1.2383	-0.2383	0.4202	0.5798	0.1986	8.26 ± 0.71	absorbance 490 nm, single well (KYSE450 cells; [2]): 0.3527 and 0.3885 and 0.4267 and 0.4169; mean absorbance 490 nm (row G) (KYSE450 cells; [2]): 0.3962; mean absorbance 490 nm minus background (row H) (KYSE450 cells; [2]): 0.3414; absorbance 490 nm, single well (KYSE450 cells; [3]): 0.1525 and 0.1448 and 0.156 and 0.143 and 0.153; mean absorbance 490 nm (row G) (KYSE450 cells; [3]): 0.1499; mean absorbance 490 nm minus background (row H) (KYSE450 cells; [3]): 0.09506; absorbance 490 nm, single well (KYSE450 cells; [4]): 0.0873 and 0.0943 and 0.1023 and 0.0955; mean absorbance 490 nm (row G) (KYSE450 cells; [4]): 0.09485; mean absorbance 490 nm minus background (row H) (KYSE450 cells; [4]): 0.04005; absorbance 490 nm, single well (KYSE450 cells; [5]): 0.0657 and 0.0611 and 0.0638 and 0.0596 and 0.0609; mean absorbance 490 nm (row G) (KYSE450 cells; [5]): 0.06222; mean absorbance 490 nm minus background (row H) (KYSE450 cells; [5]): 0.00742; inhibition (1 minus fraction of control) (KYSE410 cells; KYSE410, concentration 50): 0.8014; blank-corrected absorbance 490 nm relative to control (fraction) (KYSE410 cells; KYSE410, concentration 100): -0.03723; inhibition (1 minus fraction of control) (KYSE410 cells; KYSE410, concentration 100): 1.037
	CC(=O)O[C@H]1C(=O)[C@@]2(C)[C@H]([C@H](OC(=O)c3ccccc3)[C@]3(O)C[C@H](OC(=O)[C@H](O)[C@@H](NC(=O)c4ccccc4)c4ccccc4)C(C)=C1C3(C)C)[C@]1(OC(C)=O)CO[C@@H]1C[C@@H]2O [taxol, reference compound]																				IC50 (KYSE70TR cells; 24 h, read-out: 24 h IC50): 4.92 ± 0.274 µM; IC50 (KYSE70TR cells; 48 h, read-out: 48 h IC50): 1.12 ± 0.0352 µM; IC50 (KYSE410TR cells; 24 h, read-out: 24 h IC50): 6.4 ± 0.43 µM; IC50 (KYSE410TR cells; 48 h, read-out: 48 h IC50): 1.71 ± 0.05 µM; IC50 (KYSE410 cells; KYSE 410, MTT, resistance-inducing drug (taxol), read-out: 48 h IC50): 0.0524 ± 0.00345 µM; IC50 (KYSE450TR cells; 24 h, read-out: 24 h IC50): 0.266 ± 0.0661 µM; IC50 (KYSE450TR cells; 48 h, read-out: 48 h IC50): 0.12 ± 0.0301 µM
